The assay deals with HepG2 cells. Put plainly: MTS assay for cell viability / cytotoxicity in HepG2 cells. It is filed as cell-based. Particulars: Homo sapiens; HepG2 cells after 48 h, without thermal activation; read-out: IC50 μg PTX/ml. As for the experimental part: HepG2 liver cancer cell line and J774 murine macrophage cells (provided by Prof. Colby Shad Thaxton, Department of Urology, Feinberg School of Medicine, Northwestern University) were grown in RPMI-1640 medium containing 10% FBS and penicillin/streptomycin (100 units/mL and 100 μg/mL, respectively). The cells were cultured at 37° C. with 5% CO2 atmosphere in T75 flasks.
The biocompatibility of the MLCCs and cytotoxicity was tested using MTS (3-(4,5-dimethylthiazol-2-yl)-5-(3-carboxymethoxyphenyl)-2-(4-sulfophenyl)-2H-tetrazolium) assay. Briefly, J774 and HepG2 cells were plated at 1×10^5 cells per well in 24-well plate with 70-80% of confluency. […] To compare the effect of drug loaded MLCCs with native drug, Cells were also treated with different concentration of native drug (similar to amount of drug entrapped within the MLCCs as calculated from measurement via HPLC). […] MTS assay was used to quantify the cell viability according to the protocol provided by the manufacture (CellTiter 96 Aqueous One Solution Cell Proliferation Assay; Promega). The optical densities were recorded at 490 nm and 700 nm using BioTek Synergy™ 4 Hybrid Microplate Reader. The background absorbance at 700 nm was subtracted from absorbance at 490 nm. […] The IC50 values were calculated by nonlinear curve fit using dose response-inhibition equation with Graphpad Prism 5.0. […]
In general terms: Formazan colour is commonly taken as a measure of viable cells.

For the compound `CC(=O)O[C@H]1C(=O)[C@@]2(C)[C@H]([C@H](OC(=O)c3ccccc3)[C@]3(O)C[C@H](OC(=O)[C@H](O)[C@@H](NC(=O)c4ccccc4)c4ccccc4)C(C)=C1C3(C)C)[C@]1(OC(C)=O)CO[C@@H]1C[C@@H]2O` [PTX, paclitaxel], the IC50 turned out to be 0.63 µg/mL.

The record behind these values is US11510872B2, “Nanoparticle-lipid composite carriers and uses thereof” (Northwestern University, priority 2017, dated 2022).
